The results in this text go back to ChEMBL document CHEMBL5653631, “A Potent and Selective ULK1 Inhibitor Suppresses Autophagy and Sensitizes Cancer Cells to Nutrient Stress” (iScience, 2018).

The target in assay [1] is Ephrin type-A receptor 2 (Homo sapiens) (UniProt P29317). The assay can be described thus: Inhibition of human recombinant EphA2 at 40 nM in presence of ATP by radiometric assay relative to control.
For assay [2], the target named is Calcium/calmodulin-dependent protein kinase type 1 (Homo sapiens) (UniProt Q14012). Description: Inhibition of human recombinant CaMK1a at 40 nM related to control ULK1.
Assay [3] deals with Serine/threonine-protein kinase NIM1 (Homo sapiens) (UniProt Q8IY84). Description: Inhibition of human recombinant NIM1 at 500 nM in presence of ATP by radiometric assay relative to control.
In assay [4] the target is T1, Myosin-IIIb (Homo sapiens) (UniProt Q8WXR4).
T1 sequence (whole entry): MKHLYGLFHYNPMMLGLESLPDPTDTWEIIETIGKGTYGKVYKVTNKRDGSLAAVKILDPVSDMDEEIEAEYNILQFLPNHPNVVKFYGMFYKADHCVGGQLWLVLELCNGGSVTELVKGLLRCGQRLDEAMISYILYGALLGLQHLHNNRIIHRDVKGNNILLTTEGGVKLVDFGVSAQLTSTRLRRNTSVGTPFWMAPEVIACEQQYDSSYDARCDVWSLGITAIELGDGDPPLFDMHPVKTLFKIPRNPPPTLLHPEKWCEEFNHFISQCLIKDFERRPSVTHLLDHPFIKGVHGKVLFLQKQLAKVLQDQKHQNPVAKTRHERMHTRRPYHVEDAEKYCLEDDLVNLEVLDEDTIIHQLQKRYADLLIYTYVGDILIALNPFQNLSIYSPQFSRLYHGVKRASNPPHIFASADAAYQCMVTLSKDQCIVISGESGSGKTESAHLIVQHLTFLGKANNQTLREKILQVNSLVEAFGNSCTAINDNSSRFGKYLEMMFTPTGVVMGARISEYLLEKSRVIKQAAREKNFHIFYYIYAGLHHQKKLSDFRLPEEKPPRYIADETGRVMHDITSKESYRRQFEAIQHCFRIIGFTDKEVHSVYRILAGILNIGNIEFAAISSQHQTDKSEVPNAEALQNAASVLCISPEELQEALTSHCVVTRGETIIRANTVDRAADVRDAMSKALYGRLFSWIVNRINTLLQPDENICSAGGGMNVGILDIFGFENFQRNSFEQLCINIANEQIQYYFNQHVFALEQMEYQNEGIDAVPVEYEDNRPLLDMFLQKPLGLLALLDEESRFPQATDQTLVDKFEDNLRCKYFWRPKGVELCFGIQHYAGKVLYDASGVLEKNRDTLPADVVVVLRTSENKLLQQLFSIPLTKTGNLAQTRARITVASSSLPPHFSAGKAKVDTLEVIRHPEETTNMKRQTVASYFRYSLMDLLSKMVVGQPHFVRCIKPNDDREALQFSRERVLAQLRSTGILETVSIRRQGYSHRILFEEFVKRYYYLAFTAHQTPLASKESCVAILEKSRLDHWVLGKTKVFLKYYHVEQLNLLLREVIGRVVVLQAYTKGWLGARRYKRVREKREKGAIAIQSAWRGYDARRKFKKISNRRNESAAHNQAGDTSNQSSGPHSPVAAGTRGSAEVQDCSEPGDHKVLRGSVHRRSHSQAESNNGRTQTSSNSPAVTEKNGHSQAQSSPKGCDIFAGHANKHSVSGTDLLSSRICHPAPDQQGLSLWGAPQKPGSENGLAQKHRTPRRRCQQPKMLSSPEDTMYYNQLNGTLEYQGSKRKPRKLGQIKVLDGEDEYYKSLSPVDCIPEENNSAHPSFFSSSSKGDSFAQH
Description: Inhibition of human recombinant MYO3B at 500 nM in presence of ATP by radiometric assay relative to control.

Assay [5] addresses Fibroblast growth factor receptor 2 (Homo sapiens) (UniProt P21802). The assay can be described thus: Inhibition of human recombinant FGFR2 at 500 nM in presence of ATP by radiometric assay relative to control.
Assay [6] concerns the target T2, Tyrosine-protein kinase Mer (Homo sapiens) (UniProt Q12866).
T2 sequence (whole entry): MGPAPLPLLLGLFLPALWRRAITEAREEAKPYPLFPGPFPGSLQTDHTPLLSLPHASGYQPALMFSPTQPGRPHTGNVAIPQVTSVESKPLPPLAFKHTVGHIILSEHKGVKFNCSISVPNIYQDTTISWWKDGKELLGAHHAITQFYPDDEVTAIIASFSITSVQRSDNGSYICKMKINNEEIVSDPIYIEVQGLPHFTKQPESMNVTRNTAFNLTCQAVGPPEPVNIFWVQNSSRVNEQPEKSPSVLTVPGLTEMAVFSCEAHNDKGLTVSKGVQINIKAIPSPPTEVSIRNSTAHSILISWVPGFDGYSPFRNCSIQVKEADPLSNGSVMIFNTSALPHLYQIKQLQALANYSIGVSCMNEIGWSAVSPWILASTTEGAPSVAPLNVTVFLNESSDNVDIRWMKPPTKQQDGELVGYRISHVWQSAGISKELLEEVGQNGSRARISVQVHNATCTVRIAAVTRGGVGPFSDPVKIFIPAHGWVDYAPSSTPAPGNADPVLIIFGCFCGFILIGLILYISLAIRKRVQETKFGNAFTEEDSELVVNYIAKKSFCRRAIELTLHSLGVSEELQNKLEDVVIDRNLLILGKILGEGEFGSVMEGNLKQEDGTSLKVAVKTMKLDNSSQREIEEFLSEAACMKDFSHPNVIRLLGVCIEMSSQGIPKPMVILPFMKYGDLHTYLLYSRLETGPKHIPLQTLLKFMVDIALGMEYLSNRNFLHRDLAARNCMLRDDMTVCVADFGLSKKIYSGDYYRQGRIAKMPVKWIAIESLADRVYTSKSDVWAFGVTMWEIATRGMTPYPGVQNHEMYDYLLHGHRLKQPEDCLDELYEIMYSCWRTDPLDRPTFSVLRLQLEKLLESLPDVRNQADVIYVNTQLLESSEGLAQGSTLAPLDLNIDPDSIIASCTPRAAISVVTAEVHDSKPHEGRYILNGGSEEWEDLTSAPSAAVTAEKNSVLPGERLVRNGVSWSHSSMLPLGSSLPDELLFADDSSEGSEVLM
Description: Inhibition of human recombinant MER at 500 nM related to control ULK1.

Sequence of Fibroblast growth factor receptor 2 (Homo sapiens) (P21802 22-821 limits assumed): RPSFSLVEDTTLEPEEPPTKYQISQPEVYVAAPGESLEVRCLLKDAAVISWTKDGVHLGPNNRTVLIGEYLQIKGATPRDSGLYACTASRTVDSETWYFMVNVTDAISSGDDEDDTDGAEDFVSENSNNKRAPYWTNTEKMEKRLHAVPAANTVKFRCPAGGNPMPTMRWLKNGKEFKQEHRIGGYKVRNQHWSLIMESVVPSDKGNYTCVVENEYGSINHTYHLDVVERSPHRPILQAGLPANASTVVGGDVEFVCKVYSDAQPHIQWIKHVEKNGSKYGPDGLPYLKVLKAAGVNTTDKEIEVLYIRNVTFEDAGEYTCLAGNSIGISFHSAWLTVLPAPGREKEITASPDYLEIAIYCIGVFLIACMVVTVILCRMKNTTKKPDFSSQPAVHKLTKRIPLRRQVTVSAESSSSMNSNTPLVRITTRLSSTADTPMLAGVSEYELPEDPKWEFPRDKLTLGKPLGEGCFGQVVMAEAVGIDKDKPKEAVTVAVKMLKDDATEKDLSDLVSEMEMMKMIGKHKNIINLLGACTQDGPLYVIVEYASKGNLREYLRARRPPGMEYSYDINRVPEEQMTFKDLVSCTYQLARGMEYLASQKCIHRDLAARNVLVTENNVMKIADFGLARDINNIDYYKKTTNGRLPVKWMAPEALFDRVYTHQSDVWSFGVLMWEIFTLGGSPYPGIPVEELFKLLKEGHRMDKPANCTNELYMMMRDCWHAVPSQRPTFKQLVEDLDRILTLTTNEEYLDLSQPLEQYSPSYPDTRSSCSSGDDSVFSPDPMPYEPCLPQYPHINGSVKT
Sequence of Calcium/calmodulin-dependent protein kinase type 1 (Homo sapiens) (Q14012 whole entry, looked up): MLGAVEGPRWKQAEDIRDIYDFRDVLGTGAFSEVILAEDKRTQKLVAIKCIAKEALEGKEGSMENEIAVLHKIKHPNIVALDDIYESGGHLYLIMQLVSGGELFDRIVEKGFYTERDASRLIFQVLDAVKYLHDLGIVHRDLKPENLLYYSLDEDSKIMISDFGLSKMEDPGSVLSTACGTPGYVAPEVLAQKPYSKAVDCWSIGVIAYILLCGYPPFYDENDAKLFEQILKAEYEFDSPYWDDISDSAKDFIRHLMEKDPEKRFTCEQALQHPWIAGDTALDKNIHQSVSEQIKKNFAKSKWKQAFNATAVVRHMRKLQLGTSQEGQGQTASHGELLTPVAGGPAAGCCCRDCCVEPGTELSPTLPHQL
Sequence of Ephrin type-A receptor 2 (Homo sapiens) (P29317 whole entry): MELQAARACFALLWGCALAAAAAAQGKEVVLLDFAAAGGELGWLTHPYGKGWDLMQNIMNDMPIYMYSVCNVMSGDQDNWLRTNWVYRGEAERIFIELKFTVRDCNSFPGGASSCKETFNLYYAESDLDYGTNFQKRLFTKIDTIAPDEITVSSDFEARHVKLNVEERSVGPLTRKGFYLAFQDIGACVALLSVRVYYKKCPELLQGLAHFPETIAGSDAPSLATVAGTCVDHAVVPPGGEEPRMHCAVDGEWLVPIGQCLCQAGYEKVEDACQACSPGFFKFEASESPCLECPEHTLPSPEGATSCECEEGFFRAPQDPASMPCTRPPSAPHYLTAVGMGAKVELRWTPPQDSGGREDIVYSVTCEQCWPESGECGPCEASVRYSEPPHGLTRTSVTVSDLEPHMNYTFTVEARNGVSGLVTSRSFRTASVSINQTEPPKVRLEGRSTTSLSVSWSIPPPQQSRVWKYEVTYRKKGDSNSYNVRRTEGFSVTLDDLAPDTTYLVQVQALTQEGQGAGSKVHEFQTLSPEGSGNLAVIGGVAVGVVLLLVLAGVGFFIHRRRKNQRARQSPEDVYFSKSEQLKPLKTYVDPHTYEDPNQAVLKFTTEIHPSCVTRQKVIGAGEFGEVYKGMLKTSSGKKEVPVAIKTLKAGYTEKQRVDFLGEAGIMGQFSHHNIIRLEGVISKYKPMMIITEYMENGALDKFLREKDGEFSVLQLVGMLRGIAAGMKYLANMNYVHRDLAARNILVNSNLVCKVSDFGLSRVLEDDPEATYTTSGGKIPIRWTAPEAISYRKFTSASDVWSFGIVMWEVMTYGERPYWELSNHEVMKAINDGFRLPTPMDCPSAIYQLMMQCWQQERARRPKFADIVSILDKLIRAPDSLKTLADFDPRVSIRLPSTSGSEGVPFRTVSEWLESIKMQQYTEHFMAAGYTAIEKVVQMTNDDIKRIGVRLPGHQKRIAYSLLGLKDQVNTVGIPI
Sequence of Serine/threonine-protein kinase NIM1 (Homo sapiens) (Q8IY84 whole entry): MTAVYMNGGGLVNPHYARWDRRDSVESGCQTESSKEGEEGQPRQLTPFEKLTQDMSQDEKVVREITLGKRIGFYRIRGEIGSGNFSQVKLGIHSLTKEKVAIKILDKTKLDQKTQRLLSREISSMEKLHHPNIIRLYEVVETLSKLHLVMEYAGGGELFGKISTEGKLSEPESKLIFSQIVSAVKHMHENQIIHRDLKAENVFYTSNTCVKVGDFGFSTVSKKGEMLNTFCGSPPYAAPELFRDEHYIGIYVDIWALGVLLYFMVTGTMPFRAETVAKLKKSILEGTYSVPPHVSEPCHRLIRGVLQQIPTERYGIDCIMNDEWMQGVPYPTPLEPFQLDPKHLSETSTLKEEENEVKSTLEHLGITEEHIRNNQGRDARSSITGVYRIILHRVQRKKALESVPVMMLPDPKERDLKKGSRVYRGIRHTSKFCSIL

Turning to `O=C(N[C@@H](C1CC1)C(F)(F)F)c1cc(-c2cnn3cc(-c4ccc(F)cc4)cnc23)cs1`, the inhibition in assay [1] was 2%. Moreover, the fold change (FC) in assay [2] turned out to be 0.
In the case of `CNC(=O)c1ccccc1Oc1nc(Nc2cc(OC)c(OC)c(OC)c2)ncc1Br`, the inhibition was determined as 0% in assay [3], 11% in assay [4] and 21% in assay [5]. The fold change (FC) in assay [6] stood at 0.12.

The inhibition is the drop in the measured response relative to a control, in per cent.
